# Reference: paper PMC6214004, “Novel C15 Triene Triazole, D-A Derivatives Anti-HepG2, and as HDAC2 Inhibitors: A Synergy Study” (International Journal of Molecular Sciences, 2018)
# Where two headings read alike, the source gives them in different places.
# What was measured:
# [1] = system: HepG2 (human hepatocellular carcinoma); experiment: MTT assay, inhibition of HepG2 cell proliferation; type: cell-based
# Protocol: Preliminary in vitro screening results of the title compounds for antitumor activity against HepG2 (human hepatocellular carcinoma) and human normal hepatocytes (LO2) were determined by MTT assay (thiazolyl blue salt colorimetry) (see Figure 1 and Figure 2). […]
# All analyses were carried out with SPSS 19.0 software (SPSS, Chicago, IL, USA). […]
# The measurement data material of the experimental were described by x±s. Two samples were compared with the t test. The difference was significant statistically (p < 0.05).
# MTT assay detect cell proliferation
# MTT assay was used to determine the inhibitory effect on the proliferation of HepG2 cells of levopimaric acid. Compound 4 and levopimaric acid were combined with three groups below. The cells in the logarithmic growth phase were inoculated into 96-well culture plates at 3.5×10^3 cells/well, 0.2 ml per well, and incubated for 72 h with different concentrations of levopimaric acid. Then, we continually cultured it for 4 h after mixing fresh MTT working solution 20 μL (final concentration was 0.5 mg/mL), and carefully discarded the supernatant, added […] of DMSO per well and shook up. The absorbance (A) at the wavelength of 490 nm was measured by a microplate reader. The cell proliferation inhibition rate was calculated according to the following formula=[(negative control group A value - blank group A value) - (experimental group A value - blank group A value)]/ (Negative control group A value - blank group A value) × 100%.
# Table S1 Compound 4 and levopimaric acid anti-HepG2 by single drug.
# Concentration 4 Concentration Levopimaric acid
# /μM Inhibitory rate/% Inhibitory rate/% /μM […]
# Detection of cell proliferation by MTT
# MTT assay was used to determine the inhibitory effect of the sample on the proliferation of HepG2 cells. The tumor cells of logarithmic growth stage were inoculated with 3.5×10^3/well in 96 well culture plate. 0.2 ml/pore system was cultured for 72 h with different concentrations of samples. Then 20 μL (final concentration 0.5 mg/mL) of MTT were added to each pore for 4 h. The supernatant was carefully adsorbed, and 0.15 mL DMSO was added to each pore, and oscillatory mixing was carried out. The absorbance (A) value at 490 nm wavelength was measured by enzyme labeling instrument.
# The inhibition rate of cell proliferation was calculated as follows: [(A value of negative control group - A value of blank group) - (A value of experimental group A value of blank group)]/(negative pair […]
# (§1) Firstly, sucked out the original medium when the cell coverage in the culture bottle had reached 80% ~ 90%. Secondly, added appropriate trypsin (0.25%) to digest the cells for 1~2 min until they became round. Mixed the equal volume of serum-containing medium to terminate the digestion.
# Thirdly, use pipette to percuss cells and make them suspend. Then, sucked the cells into a 15 mL centrifuge tube and centrifuge them for 5 min. At last, dropped the supernatant, add 1~2 mL medium to suspend the cells, and cultivated them in the culture bottle.
# The first step was to add suitable trypsin digestion cells and collected the cell suspension.
# Centrifuged the suspension at 1000 rpm for 5 min in the tube, and then abandoned the supernatant.
# Secondly, added cryoprotectant to the cell sediment and mixed them lightly until the cell density was 1×106~1×10^7/ml. Later, divided them into 1~1.5 ml per tube, tightened the cap and made a mark on surface including the cell code and the freezing date. In the end, cooled the cells in following order: room temperature→ 4℃ (20 min) → the freezer (30 min) → low temperature refrigerator (-30℃ for 1 h) →gaseous nitrogen (30 min) →the liquid nitrogen.
# (§2) Cell proliferation measured by MTT
# First of all, digested the cells and counted them. Added 100 μL cell suspension (3×10^4 /ml) into each hole of the 96 holes cell culture plate. Secondly, placed the 96 holes cell culture plate in a 5% CO2 culture box for 24 h at 37℃. Then, used the medium to dilute the drug into the desired working fluid […]
# [2] = system: human normal hepatocytes (LO2); experiment: MTT assay, inhibition (toxicity) of LO2 cell proliferation; type: cell-based; conditions: Hepatocyte, 72 h, read-out: inhibitory activity against LO2, IC50
# Protocol: Preliminary in vitro screening results of the title compounds for antitumor activity against HepG2 (human hepatocellular carcinoma) and human normal hepatocytes (LO2) were determined by MTT assay (thiazolyl blue salt colorimetry) (see Figure 1 and Figure 2).
# as §1
# Thirdly, use pipette to percuss cells and make them suspend. Then, sucked the cells into a 15 mL centrifuge tube and centrifuge them for 5 min. At last, dropped the supernatant, add 1~2 mL medium to suspend the cells, and cultivated them in the culture bottle. […]
# as §2
# First of all, digested the cells and counted them. Added 100 μL cell suspension (3×10^4 /ml) into each hole of the 96 holes cell culture plate. Secondly, placed the 96 holes cell culture plate in a 5% CO2 culture box for 24 h at 37℃. Then, used the medium to dilute the drug into the desired working fluid concentration, added 100 μL per hole to the corresponding drug medium, and established a negative control group as well as a positive control group (paclitaxel, 20 ug/ml). Next, placed 96 holes cell culture plate at 37℃ and cultivated the cells in a 5% CO2 incubator for 72 h. After treating 96 holes board with MTT staining, estimated the OD value: a. Added 20 μL MTT (5 mg/ml) per hole, and cultivated cells in the box for 4 h. b. Discarded the supernatant, added 150 μL DMSO in each hole, and mixed them gently after treatment with shaker for 10 min. c. Under 490nm ultraviolet wavelength, read the OD value from ELISA.
# Finally, figured up the inhibition rate of each group
# *The inhibition rate (%) = (negative control group OD value - experimental group OD value) / negative control group OD value ×100%. […]
# The next day, joined the corresponding drug-containing medium after the cells adhered. And established the negative control group at the same time. After 72 h, use 0.25% pancreatin (not contain EDTA) to digest the cells. Thirdly, applied PBS to scrub the cells (centrifuge them at 2000 rpm for 5min), and collected 5×10^5 cells. Then, used a volume fraction of 70% ethanol to fix the single cell suspension for 2 h (or overnight), and stored it at 4℃. Before washing, employed PBS to remove the fixative solution (if needed, filter cell suspension through 200 mesh). Added […] RNase A, and made it in water bath at 37℃ for 30 min. Later, placed it at 4℃ for 30 min without light. […]
# Detection of apoptosis by Annexin-V FITC/PI double staining
# Firstly, inoculated the logarithmic growth cells into the six-hole plate. […]
# LO2 = system: LO2; design: method as in earlier work; conditions: LO2, 24 h; cited from earlier work
# [3] = Homo sapiens, HepG2, 72 h, 72 h, MTT, read-out: inhibitory activity against HepG2, IC50
compound,measurement,setting,value
"C/C=C\C=C\C/C=C\CCCCCCCc1cccc(O)c1O [Compound 1, triene urushiol]",IC50,"[1]; Homo sapiens, HepG2, 72 h, read-out: inhibitory activity against HepG2, IC50, 72 h, MTT",< 50 µM
same,IC50,"[1]; read-out: inhibitory activity against HepG2, IC50, 72 h, MTT",28.6 µM
same,IC50,[2],66.1 µM
"CC(C)C1=CC[C@H]2C(=C1)CC[C@@H]1[C@]2(C)CCC[C@@]1(C)C(=O)O [Compound 5, Levopimaric Acid]",IC50,[1]; [3],39.5 µM
same,inhibition at 0.585 µM,"[1]; Homo sapiens, HepG2, 0.585 μM, 72 h, read-out: Inhibitory rate/%, anti-HepG2 by single drug",4.12%
same,inhibition at 1.171 µM,"[1]; Homo sapiens, HepG2, 1.171 μM, 72 h, read-out: Inhibitory rate/%, anti-HepG2 by single drug",5.45%
same,inhibition at 2.343 µM,"[1]; Homo sapiens, HepG2, 2.343 μM, 72 h, read-out: Inhibitory rate/%, anti-HepG2 by single drug",9.45%
same,inhibition at 4.687 µM,"[1]; Homo sapiens, HepG2, 4.687 μM, 72 h, read-out: Inhibitory rate/%, anti-HepG2 by single drug",13.8%
same,inhibition at 9.375 µM,"[1]; Homo sapiens, HepG2, 9.375 μM, 72 h, read-out: Inhibitory rate/%, anti-HepG2 by single drug",32.1%
same,inhibition at 18.75 µM,"[1]; Homo sapiens, HepG2, 18.75 μM, 72 h, read-out: Inhibitory rate/%, anti-HepG2 by single drug",44.6%
same,inhibition at 37.5 µM,"[1]; Homo sapiens, HepG2, 37.5 μM, 72 h, read-out: Inhibitory rate/%, anti-HepG2 by single drug",47.2%
same,inhibition at 75 µM,"[1]; Homo sapiens, HepG2, 75 μM, 72 h, read-out: Inhibitory rate/%, anti-HepG2 by single drug",73.4%
same,inhibition at 150 µM,"[1]; Homo sapiens, HepG2, 150 μM, 72 h, read-out: Inhibitory rate/%, anti-HepG2 by single drug",91.5%
same,IC50,[2],> 200 µM
CC1C=CC(C/C=C\CCCCCCCc2cccc(O)c2O)C2(F)C(=O)OC(=O)C12F (stereo not shown) [Compound 15],IC50,[1]; [3],29.4 µM
same,IC50,[2],> 200 µM
CC1C=CC(C/C=C\CCCCCCCc2cccc(O)c2O)C2(Cl)C(=O)OC(=O)C12Cl (stereo not shown) [Compound 16],IC50,"[1]; Homo sapiens, HepG2, 72 h, MTT, read-out: inhibitory activity against HepG2, IC50",23.9 µM
same,IC50,[2],> 200 µM
CC(=O)O[C@H]1C(=O)[C@@]2(C)[C@H]([C@H](OC(=O)c3ccccc3)[C@]3(O)C[C@H](OC(=O)[C@H](O)[C@@H](NC(=O)c4ccccc4)c4ccccc4)C(C)=C1C3(C)C)[C@]1(OC(C)=O)CO[C@@H]1C[C@@H]2O [paclitaxel],IC50 on LO2,LO2,28.5 µg/mL
